Assay results from patent publication US10913757B2, “Hydroxycinnamic derivatives, methods and uses thereof” (UNIVERSIDADE DO PORTO, priority 2016, dated 2021).

Test system: rat liver mitochondria (RLM) membranes
Assay: RLM lipid peroxidation, TBARS assay (FeSO4/H2O2/ascorbate)
Format: biochemical
Conditions: 5 μM pre-incubation, FIG. 4A
Experimental: In an embodiment, and as an example, AntiOxCINs antioxidant performance, on the protection of lipid peroxidation of RLM membranes was determined. Two different oxidative stressor agents, FeSO4/H2O2/ascorbate and ADP/FeSO4, and two end-points, TBARS production and oxygen-consumption, respectively, have been used. MitoQ was used as reference (FIGS. 4 and 5).
In an embodiment, the evaluation of AntiOxCINs functional mitochondrial toxicity profile was performed in rat liver mitochondria (RLM). RLM were prepared by tissue homogenization followed by differential centrifugations in ice-cold buffer containing 250 mM sucrose, 10 mM HEPES (pH 7.4), 1 mM EGTA, and 0.1% fat-free bovine serum albumin. […] The protein concentration was determined by the biuret assay using BSA as a standard.
In an embodiment, the effect of AntiOxCINs on RLM lipid peroxidation was measured by thiobarbituric acid reactive species (TBARS) assay as follows: RLM (2 mg protein/ml) were incubated in 0.8 mL medium containing 100 mM KCl, 10 mM Tris-HCl and pH 7.6, at 37° C., supplemented with 5 mM glutamate/2.5 mM malate as substrate. […] The fluorescence of aliquots (250 μL) of the organic layer was analyzed in a plate reader (λEx=515 nm; λEm=553 nm) for TBARS. […] Data are means±SEM of three independent experiments and are expressed as % of control (control=100%).

`CS(=O)(=O)[O-].O=C(/C=C/c1ccc(O)c(O)c1)NCCCCCC[P+](c1ccccc1)(c1ccccc1)c1ccccc1` [AntiOxCIN2, (E)-(6-(3-(3,4-dihydroxyphenyl)prop-2-enamido)hexyl)triphenylphosphonium methanesulfonate] was tested, and the “prevention of mitochondria lipid peroxidation (TBARS levels)” value was “most effective”.
